The values that follow come from patent US20090069319A1, “IMIDAZOPYRIDINE ANALOGS AND THEIR USE AS AGONISTS OF THE WNT-BETA-CATENIN CELLULAR MESSAGING SYSTEM” (Wyeth, priority 2007, published 2009).

Molecules are shown by their SMILES. pEC50: −log10 of the molar value.

One may read the pEC50 as −log10 of the EC50, conventionally taken in molar units. As a reminder, the fold induction is the ratio of treated to control signal.

The test system of data set [1] is canonical Wnt-β-catenin cellular messaging system (16xTCF-TK-FireFly-Luci reporter, Wnt3a and Dkk1 co-transfected U2OS cells). Description: Functional Dkk1-LRP5-TCF-Luciferase Assay in U2OS Cells (table columns: A=MAX FOLD Induction/DMSO CONTROL; B=fold induction @ 2.0 uM; C=fold induction @ 20.0 uM). The data set is classed as cell-based, Human. Particulars: maximum fold induction over DMSO control. The gist of the method:
(§1)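 U2OS cells co-transfected with 16×TCF-TK-firefly luciferase, TK-Renilla control, Wnt3a and Dkk1, then frozen; thawed cells (~5,000/well, ~5% FBS, phenol red-free RPMI) incubated ~20 h at 37° C. with compound (0.25% DMSO). Firefly luminescence (Bright-Glo) normalized to DMSO mean as fold induction.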

Assay in data set [2]: as above
The data set is classed as cell-based, Human. The settings on record: Homo sapiens; for pEC50: U2OS cells, TCF-luciferase reporter; for fold induction at 2 µM / fold induction at 20 µM: U2OS; for fold induction at 2 µM: 2.0 uM compound; for fold induction at 20 µM: 20.0 uM compound. The gist of the method: as §1
On the technique in general: A reporter such as luciferase makes a cellular process visible.

Regarding `c1ccc2cc(-c3cnc4c(c3)nc(-c3ccc5c(c3)OCO5)n4C3CCNCC3)ccc2c1` [2-(1,3-benzodioxol-5-yl)-6-(2-naphthyl)-3-piperidin-4-yl-3H-imidazo[4,5-b]pyridine], in data set [1], the “A = MAX FOLD Induction/DMSO CONTROL” value came to 1.860. Further, the pEC50 in data set [2] is 6.13.

`Cn1ccnc1-c1nc2cc(-c3ccc4ccccc4c3)cnc2n1C1CCNCC1` [2-(1-methyl-1H-imidazol-2-yl)-6-(2-naphthyl)-3-piperidin-4-yl-3H-imidazo[4,5-b]pyridine]: in data set [1], the “A = MAX FOLD Induction/DMSO CONTROL” value is recorded as 2.720.

As for `Cn1cccc1-c1nc2cc(-c3ccc4ccccc4c3)cnc2n1C1CCNCC1` [2-(1-methyl-1H-pyrrol-2-yl)-6-(2-naphthyl)-3-piperidin-4-yl-3H-imidazo[4,5-b]pyridine], in data set [1], the “A = MAX FOLD Induction/DMSO CONTROL” value was 2.470.

As for `c1ccc2cc(-c3cnc4c(c3)nc(-c3ccc5c(c3)OCCO5)n4C3CCNCC3)ccc2c1` [2-(2,3-dihydro-1,4-benzodioxin-6-yl)-6-(2-naphthyl)-3-piperidin-4-yl-3H-imidazo[4,5-b]pyridine], the “A = MAX FOLD Induction/DMSO CONTROL” value in data set [1] is on record as 1.460.

In the case of `COc1ncccc1-c1nc2cc(-c3ccc4ccccc4c3)cnc2n1C1CCNCC1` [2-(2-methoxypyridin-3-yl)-6-(2-naphthyl)-3-piperidin-4-yl-3H-imidazo[4,5-b]pyridine], the “A = MAX FOLD Induction/DMSO CONTROL” value in data set [1] was 2.030. For the same molecule, in data set [2], the fold induction at 2 µM came out at 2.06 and the fold induction at 20 µM turned out to be 0.02.

For `Clc1ccc(-c2nc3cc(-c4ccc5ccccc5c4)cnc3n2C2CCNCC2)cc1` [2-(4-chlorophenyl)-6-(2-naphthyl)-3-piperidin-4-yl-3H-imidazo[4,5-b]pyridine], the “A = MAX FOLD Induction/DMSO CONTROL” value in data set [1] amounted to 1.160.

For the molecule `Fc1ccc(-c2nc3c(-c4ccc5ccccc5c4)ccnc3n2C2CCNCC2)cc1` [2-(4-fluorophenyl)-7-(2-naphthyl)-3-piperidin-4-yl-3H-imidazo[4,5-b]pyridine], the “A = MAX FOLD Induction/DMSO CONTROL” value in data set [1] amounted to 1.370. In data set [2], the fold induction at 2 µM was determined as 2.07.

As for `COc1ccc(-c2nc3cc(-c4ccc5ccccc5c4)cnc3n2C2CCNCC2)cc1` [2-(4-methoxyphenyl)-6-(2-naphthyl)-3-piperidin-4-yl-3H-imidazo[4,5-b]pyridine], the “A = MAX FOLD Induction/DMSO CONTROL” value in data set [1] turned out to be 1.350.

As for `COc1ccc(-c2nc3c(-c4ccc5ccccc5c4)ccnc3n2C2CCNCC2)cc1` [2-(4-methoxyphenyl)-7-(2-naphthyl)-3-piperidin-4-yl-3H-imidazo[4,5-b]pyridine], the “A = MAX FOLD Induction/DMSO CONTROL” value in data set [1] was 1.320. In addition, in data set [2], the fold induction at 2 µM was found to be 1.98.

For `Cc1nc[nH]c1-c1nc2cc(-c3ccc4ccccc4c3)cnc2n1C1CCNCC1` [2-(4-methyl-1H-imidazol-5-yl)-6-(2-naphthyl)-3-piperidin-4-yl-3H-imidazo[4,5-b]pyridine], in data set [1], the “A = MAX FOLD Induction/DMSO CONTROL” value was 1.870.

`Oc1ccccc1-c1nc2cc(-c3ccc4ccccc4c3)cnc2n1C1CCNCC1` [2-[6-(2-naphthyl)-3-piperidin-4-yl-3H-imidazo[4,5-b]pyridin-2-yl]phenol]: the “A = MAX FOLD Induction/DMSO CONTROL” value in data set [1] came out at 1.380.

On to `COc1cc(-c2nc3cc(-c4ccc5ccccc5c4)cnc3n2C2CCNCC2)ccc1O` [2-methoxy-4-[6-(2-naphthyl)-3-piperidin-4-yl-3H-imidazo[4,5-b]pyridin-2-yl]phenol], for which the “A = MAX FOLD Induction/DMSO CONTROL” value in data set [1] was determined as 2.110. In data set [2], this molecule had a pEC50 of 6.31.

Turning to `Cc1nc2c(-c3ccc4ccccc4c3)ccnc2n1[C@@H]1CCCNC1` [2-methyl-7-(2-naphthyl)-3-[(3R)-piperidin-3-yl]-3H-imidazo[4,5-b]pyridine], the “A = MAX FOLD Induction/DMSO CONTROL” value in data set [1] was found to be 3.570. Also, in data set [2], the fold induction at 2 µM was determined as 2.74, the fold induction at 20 µM amounted to 0.05 and the pEC50 is 5.57.

In the case of `Cc1nc2c(-c3ccc4ccccc4c3)ccnc2n1[C@H]1CCCNC1` [2-methyl-7-(2-naphthyl)-3-[(3S)-piperidin-3-yl]-3H-imidazo[4,5-b]pyridine], in data set [1], the “A = MAX FOLD Induction/DMSO CONTROL” value was determined as 1.910. In addition, in data set [2], the fold induction at 2 µM came out at 2.12 and the fold induction at 20 µM was determined as 0.02.

On to `Cc1nc2c(-c3ccc4ccccc4c3)ccnc2n1C1CCNCC1` [2-methyl-7-(2-naphthyl)-3-piperidin-4-yl-3H-imidazo[4,5-b]pyridine], for which the “A = MAX FOLD Induction/DMSO CONTROL” value in data set [1] worked out at 3.215. Further, in data set [2], the fold induction at 2 µM was 2.84 and the pEC50 was 6.05.

For `Oc1cccc(-c2nc3cc(-c4ccc5ccccc5c4)cnc3n2C2CCNCC2)c1O` [3-[6-(2-naphthyl)-3-piperidin-4-yl-3H-imidazo[4,5-b]pyridin-2-yl]benzene-1,2-diol], the “A = MAX FOLD Induction/DMSO CONTROL” value in data set [1] is 1.430.

In the case of `Oc1ccc(-c2nc3cc(-c4ccc5ccccc5c4)cnc3n2C2CCNCC2)cc1` [4-[6-(2-naphthyl)-3-piperidin-4-yl-3H-imidazo[4,5-b]pyridin-2-yl]phenol], in data set [1], the “A = MAX FOLD Induction/DMSO CONTROL” value amounted to 1.710.

Regarding `C=Cc1cccc(-c2nc3cc(-c4ccc5ccccc5c4)cnc3n2C2CCNCC2)c1` [6-(2-naphthyl)-3-piperidin-4-yl-2-(3-vinylphenyl)-3H-imidazo[4,5-b]pyridine], the “A = MAX FOLD Induction/DMSO CONTROL” value in data set [1] stood at 1.290.

With `FC(F)(F)c1ccccc1-c1nc2cc(-c3ccc4ccccc4c3)cnc2n1C1CCNCC1` [6-(2-naphthyl)-3-piperidin-4-yl-2-[2-(trifluoromethyl)phenyl]-3H-imidazo[4,5-b]pyridine], in data set [1], the “A = MAX FOLD Induction/DMSO CONTROL” value turned out to be 1.360.

Take `CCNC(=O)N1CCC(n2cnc3c(-c4ccc5ccccc5c4)ccnc32)CC1` [N-ethyl-4-[7-(2-naphthyl)-3H-imidazo[4,5-b]pyridin-3-yl]piperidine-1-carboxamide]: in data set [2], the fold induction at 2 µM is 1.52 and the fold induction at 20 µM was 1.29.

Consider `CC(C)NC(=O)N1CCC(n2c(=O)n(C)c3c(-c4ccc5ccccc5c4)ccnc32)CC1` [N-isopropyl-4-[1-methyl-7-(2-naphthyl)-2-oxo-1,2-dihydro-3H-imidazo[4,5-b]pyridin-3-yl]piperidine-1-carboxamide], for which, in data set [2], the fold induction at 2 µM was 1.07 and the fold induction at 20 µM was 0.26.

As to `CC(C)NC(=O)N1CCC(n2c(=O)[nH]c3c(-c4ccc5ccccc5c4)ccnc32)CC1` [N-isopropyl-4-[7-(2-naphthyl)-2-oxo-1,2-dihydro-3H-imidazo[4,5-b]pyridin-3-yl]piperidine-1-carboxamide], in data set [2], the fold induction at 2 µM is 1.42 and the fold induction at 20 µM worked out at 1.1.

Turning to `CC(C)NC(=O)N1CCC(n2cnc3c(-c4ccc5ccccc5c4)ccnc32)CC1` [N-isopropyl-4-[7-(2-naphthyl)-3H-imidazo[4,5-b]pyridin-3-yl]piperidine-1-carboxamide], in data set [2], the fold induction at 2 µM came to 1.2 and the fold induction at 20 µM came to 0.84.

For `CC(=O)Nc1ccc(-c2nc3cc(-c4ccc5ccccc5c4)cnc3n2C2CCNCC2)cc1` [N-{4-[6-(2-naphthyl)-3-piperidin-4-yl-3H-imidazo[4,5-b]pyridin-2-yl]phenyl}acetamide], the “A = MAX FOLD Induction/DMSO CONTROL” value in data set [1] is on record as 1.460.

Take `COC(=O)N1CCC(n2cnc3c(-c4ccc5ccccc5c4)ccnc32)CC1` [methyl 4-[7-(2-naphthyl)-3H-imidazo[4,5-b]pyridin-3-yl]piperidine-1-carboxylate]: in data set [2], the fold induction at 2 µM worked out at 1.08 and the fold induction at 20 µM amounted to 1.02.
